Assays:
[1] = system: bovine brain capillary endothelial cells; assay: Leptin transcytosis in blood-brain barrier in vitro model; assay type: cell-based; conditions: for leptin transport / transcytosis: 10 ng/mL 125I-leptin + 50 μg/mL peptide
Procedure: Cells were incubated with ^125I-leptin alone (10,000 dpm/ng) (closed squares), with 1 μg/mL unlabelled leptin (triangles), 50 μg/mL MP (circles), 50 μg/mL HP (open squares), or 2 mg/mL lactoferrin (asterisks).
Human leptin transport through the blood-brain barrier (BBB) is studied using an in vitro model (Dehouck, et al J Neurochem 54:1798-801, 1990 hereby incorporated herein by reference in its entirety including any figures, tables, or drawings). This model closely mimics the in vivo situation with regard to the selective passage of nutrients and drugs through the cerebro-vascular endothelium. […] Briefly, this model consists of a co-culture of bovine brain capillary endothelial cells (ECs) and rat astrocytes (FIG. 31). The astrocytes are seeded on the plastic of a six-well dish and grown for 3 weeks. A collagen-coated filter is then set in each dish and bovine ECs are plated on the upper-side of the filter. ECs form a confluent monolayer in 5 days and they are used for experiments after 16 days of coculture with astrocytes.
Leptin transcytosis: Experiments were performed on brain capillary endothelial cells in coculture with astrocytes for 16 days. On the day of the experiment, ECs were transferred to a clean 6-well plate containing 2 mL of Ringer-Hepes buffer (see, FIG. 32). At time 0, 1 mL Ringer Hepes containing ^125I-leptin was placed in the upper compartment. After 30, 60, 120, or 180 min incubation at 37° C. on a rocking platform, the insert was transferred into another well of a six-well plate to minimize the possible passage of substances from the lower to the upper compartment. At the end of the experiment, the amount of radioactivity of each well was counted. […]
The transport of molecules through the endothelial monolayer was determined for each time point as % passage: % passage of radiolabelled molecule through the endothelium: dpm found in the lower compartment at a time point divided by the initial dpm found in the upper compartment: % transport at 30 min=(lower dpm t30/upper dpm)*100.

[2] = system: LSR; assay: LSR activity (oleate-induced 125I-LDL binding, uptake, degradation) in PLC cells; assay type: cell-based, human; conditions: for LSR activity in human cells: 22-mer peptide, increasing concentrations
Procedure: FIGS. 5A, 5B, 5C, and 5D show the stimulatory effect of leptin on LSR activity in PLC and suppression of this effect by 81B antibody. For FIGS. 5A, 5B, and 5C, cultured PLC cells were incubated at 37° C. for 30 min with increasing concentrations of human recombinant leptin in Buffer A. After this, 0.5 mM oleate and 20 μg/mL ^125I-LDL were added, and cells were further incubated at 37° C. for 2 h. Cells were washed, and the amount of oleate-induced ^125I-LDL bound (5A), internalized (5B) and degraded (5C) were measured. For FIG. 5D, PLC cells were incubated at room temperature for 30 min with 200 μg/mL anti-LSR peptide 81B or 170 antibody, followed by incubation at 37° C. for 30 min without (open bar) or with (hatched bar) 10 ng/mL human leptin. Oleate (0.5 mM) and ^125I-LDL (20 μg/mL) were added, and the monolayers were left at 37° C. for 3 h. After washing, the amount of ^125I-LDL binding was determined, and is shown here as the mean±SD of triplicate determinations.
FIGS. 8A and 8B show the effect of mouse or human leptin on LSR activity in primary cultures of rat hepatocytes or a human liver cell line (PLC). Primary cultured rat hepatocytes were obtained commercially (In Vitro Tech). The PLC cell line was obtained from ATCC repository and maintained in culture. Rat hepatocytes 72 h after plating (8A) or confluent monolayers of PLC (8B) were incubated 30 min at 37° C. with 0 (closed bar) or 10 ng/mL of human (open bar) or mouse (hatched bar) recombinant leptin. Following this, 0.5 mM oleate and 20 μg/mL ^125I-LDL were added and the cells were further incubated for 2 h at 37° C. […] The cells were washed, and the amount of oleate-induced ^125I-LDL bound and degraded was measured as described previously (Bihain, B. E., and Yen, F. T. (1992). Free fatty acids activate a high-affinity saturable pathway for degradation of low density lipoproteins infibroblasts from a subject homozygous for familial hypercholesterolemia. Biochemistry 31, 4628-4636.
FIGS. 35A and 35B show graphs of LSR activity and mRNA expression measured in PLC cells preincubated 24 h with leptin. In FIG. 35A, PLC monolayers were incubated 24 h at 37° C. with (o) or without (n) 200 ng/mL human recombinant leptin. After washing with PBS, cells were incubated 30 min at 37° C. with increasing concentrations of human leptin, followed by a 2 h incubation at 37° C. with 0.8 mM oleate and 20 μg/mL ^125I-LDL. Cells were washed, and the amount of oleate-induced ^125I-LDL binding was measured as described previously. Results are shown as the mean of triplicate determinations. In FIG. 35B, PLC monolayers were incubated 24 h at 37° C. with 0, 200, or 400 ng/mL human recombinant leptin. After washing with PBS, the cells were harvested. Total RNA was prepared from the cell pellets, and Northerns were performed to detect LSR mRNA, using GAPDH probe as loading control as described previously. Northern blots were scanned on the Phosphorimager (Molecular Dynamics, Sunnyvale, Calif.). Densitometric analysis of the images was performed using the software ImageQuant. Results are shown as the amount of LSR signal relative to that of GAPDH (mean±SD, n=3/condition). […]

| Substance | leptin transport / transcytosis [1] | LSR activity in human cells ([2]; PLC cells) | reduction of the amount of 125I-leptin transported ([1]; 10 ng/mL 125I-leptin + 1 μg/mL cold leptin) | leptin concentration at which the effect on LSR activity was observed ([2]; PLC cells, human recombinant leptin) [ng/mL] | oleate-induced LSR binding uptake and degradation of 125I-LDL ([2]; PLC cells, human recombinant leptin, 30 min preincubation, 0.5 mM oleate) | leptin concentration needed for maximal stimulatory effect ([2]; PLC preincubated 24 h with 200 ng/mL leptin) [ng/mL] | reduction of the maximal stimulatory effect on oleate-induced 125I-LDL binding ([2]; PLC preincubated 24 h with 200 ng/mL leptin, then short incubation with leptin) |
| --- | --- | --- | --- | --- | --- | --- | --- |
| CHLPWASGLETLDSLGGVLEAS (listed as Homo sapiens) [human peptide, human leptin fragment residues 117-138, 22-mer] | significant increase | agonistic | – | – | – | – | – |
| CSLPQTSGLQKPESLDGVLEAS (listed as Mus musculus) [mouse peptide, mouse leptin fragment residues 117-138, 22-mer] | no significant effect | antagonist | – | – | – | – | – |
| leptin: plasma protein of 16 kDa produced by adipocytes; recombinant human or mouse leptin, species depends on the experiment | – | – | approximately 30% | ≥ 10 | directly increased | 100 | about 50% |

— patent publication US7470669B2, “Isolated polypeptide comprising a leptin fragment” (Serono Genetics Institute, S.A., priority 1999, dated 2008)
